Results taken from publication PMC8330742, “New benzothieno[2,3-c]pyridines as non-steroidal CYP17 inhibitors: design, synthesis, anticancer screening, apoptosis induction, and in silico ADME profile studies” (Journal of Enzyme Inhibition and Medicinal Chemistry, 2021).

Key:
[1] = tested on: HOP-92; experiment: NCI-60 SRB screen; format: cell-based, human; conditions: HOP-92; single dose 10^−5 M
[2] = tested on: MALME-3M; experiment: NCI-60 SRB screen; format: cell-based, human; conditions: single dose 10^−5 M
[3] = tested on: SW-620; experiment: NCI-60 SRB screen; format: cell-based; conditions: SW-620; single dose 10^−5 M
[4] = tested on: OVCAR-4; experiment: NCI-60 SRB screen; format: cell-based, human; conditions: OVCAR-4; single dose 10^−5 M
[5] = tested on: UACC-62; experiment: NCI-60 SRB screen; format: cell-based, human; conditions: UACC-62; single dose 10^−5 M
[6] = tested on: HOP-62; experiment: NCI-60 SRB screen; format: cell-based, human; conditions: HOP-62; single dose 10^−5 M
[7] = tested on: SR; experiment: NCI-60 SRB screen; format: cell-based; conditions: single dose 10^−5 M
[8] = tested on: U251; experiment: NCI-60 SRB screen; format: cell-based, human; conditions: U251; single dose 10^−5 M
[9] = tested on: A498; experiment: NCI-60 SRB screen; format: cell-based, human; conditions: A498; single dose 10^−5 M
[10] = tested on: NCI-H522; experiment: NCI-60 SRB screen; format: cell-based, human; conditions: NCI-H522; single dose 10^−5 M
[11] = tested on: KM12; experiment: NCI-60 SRB screen; format: cell-based, human; conditions: KM12; single dose 10^−5 M
[12] = tested on: NCI-H460; experiment: NCI-60 SRB screen; format: cell-based, human; conditions: NCI-H460; single dose 10^−5 M
[13] = tested on: OVCAR-8; experiment: NCI-60 SRB screen; format: cell-based, human; conditions: OVCAR-8; single dose 10^−5 M
[14] = tested on: SK-OV-3; experiment: NCI-60 SRB screen; format: cell-based, human; conditions: SK-OV-3; single dose 10^−5 M
[15] = tested on: NCI-H23; experiment: NCI-60 SRB screen; format: cell-based, human; conditions: NCI-H23; single dose 10^−5 M
[16] = tested on: HCT-15; experiment: NCI-60 SRB screen; format: cell-based, human; conditions: HCT-15; single dose 10^−5 M
[17] = tested on: SF-295; experiment: NCI-60 SRB screen; format: cell-based, human; conditions: SF-295; single dose 10^−5 M
[18] = tested on: NCI/ADR-RES; experiment: NCI-60 SRB screen; format: cell-based, human; conditions: single dose 10^−5 M
[19] = tested on: SNB-75; experiment: NCI-60 SRB screen; format: cell-based, human; conditions: SNB-75; single dose 10^−5 M
[20] = tested on: SF-268; experiment: NCI-60 SRB screen; format: cell-based, human; conditions: SF-268; single dose 10^−5 M
[21] = tested on: SK-MEL-28; experiment: NCI-60 SRB screen; format: cell-based; conditions: SK-MEL-28; single dose 10^−5 M
[22] = tested on: HT-29; experiment: NCI-60 SRB screen; format: cell-based; conditions: HT-29; single dose 10^−5 M
[23] = tested on: NCI-H226; experiment: NCI-60 SRB screen; format: cell-based, human; conditions: NCI-H226; single dose 10^−5 M
[24] = tested on: RXF 393; experiment: NCI-60 SRB screen; format: cell-based, human; conditions: RXF 393; single dose 10^−5 M
[25] = tested on: SK-MEL-2; experiment: NCI-60 SRB screen; format: cell-based, human; conditions: SK-MEL-2; single dose 10^−5 M
[26] = tested on: MDA-MB-435; experiment: NCI-60 SRB screen; format: cell-based; conditions: MDA-MB435; single dose 10^−5 M
[27] = tested on: COLO 205; experiment: NCI-60 SRB screen; format: cell-based, human; conditions: COLO 205; single dose 10^−5 M
[28] = tested on: M14; experiment: NCI-60 SRB screen; format: cell-based, human; conditions: M14; single dose 10^−5 M
[29] = tested on: MOLT-4; experiment: NCI-60 SRB screen; format: cell-based; conditions: MOLT-4; single dose 10^−5 M
[30] = tested on: UACC-257; experiment: NCI-60 SRB screen; format: cell-based, human; conditions: UACC-275 (so in the source); single dose 10^−5 M
[31] = tested on: CCRF-CEM; experiment: NCI-60 SRB screen; format: cell-based; conditions: single dose 10^−5 M
[32] = tested on: EKVX; experiment: NCI-60 SRB screen; format: cell-based, human; conditions: single dose 10^−5 M
[33] = tested on: HCT-116; experiment: NCI-60 SRB screen; format: cell-based, human; conditions: HCT-116; single dose 10^−5 M
[34] = tested on: A549/ATCC; experiment: NCI-60 SRB screen; format: cell-based, human; conditions: single dose 10^−5 M
[35] = tested on: SK-MEL-5; experiment: NCI-60 SRB screen; format: cell-based, human; conditions: SK-MEL-5; single dose 10^−5 M
[36] = tested on: panel of 60 cancer cell lines; experiment: NCI-60 SRB screen, mean or range over the panel; format: cell-based, human; conditions: mean over the cell lines; single dose 10^−5 M
[37] = tested on: 786-0; experiment: NCI-60 SRB screen; format: cell-based; conditions: 786-0; single dose 10^−5 M
[38] = tested on: CAKI-1; experiment: NCI-60 SRB screen; format: cell-based, human; conditions: CAKI-1; single dose 10^−5 M
[39] = tested on: IGROV1; experiment: NCI-60 SRB screen; format: cell-based, human; conditions: IGROV1; single dose 10^−5 M
[40] = tested on: SNB-19; experiment: NCI-60 SRB screen; format: cell-based; conditions: SNB-19; single dose 10^−5 M
[41] = tested on: LOX IMVI; experiment: NCI-60 SRB screen; format: cell-based, human; conditions: single dose 10^−5 M
[42] = tested on: TK-10; experiment: NCI-60 SRB screen; format: cell-based, human; conditions: TK-10; single dose 10^−5 M
[43] = tested on: SN12C; experiment: NCI-60 SRB screen; format: cell-based, human; conditions: SN 12 C; single dose 10^−5 M
[44] = tested on: OVCAR-5; experiment: NCI-60 SRB screen; format: cell-based, human; conditions: OVCAR-5; single dose 10^−5 M
[45] = tested on: K-562; experiment: NCI-60 SRB screen; format: cell-based, human; conditions: K-562; single dose 10^−5 M
[46] = tested on: NCI-H322M; experiment: NCI-60 SRB screen; format: cell-based, human; conditions: single dose 10^−5 M
[47] = tested on: RPMI-8226; experiment: NCI-60 SRB screen; format: cell-based; conditions: RPMI-8226; single dose 10^−5 M
[48] = tested on: HCC-2998; experiment: NCI-60 SRB screen; format: cell-based, human; conditions: HCC-2998; single dose 10^−5 M
[49] = tested on: OVCAR-3; experiment: NCI-60 SRB screen; format: cell-based, human; conditions: OVCAR-3; single dose 10^−5 M
[50] = tested on: UO-31; experiment: NCI-60 SRB screen; format: cell-based, human; conditions: UO-31; single dose 10^−5 M
[51] = tested on: SF-539; experiment: NCI-60 SRB screen; format: cell-based, human; conditions: SF-539; single dose 10^−5 M
[52] = tested on: ACHN; experiment: NCI-60 SRB screen; format: cell-based; conditions: single dose 10^−5 M
[53] = tested on: HL-60(TB); experiment: NCI-60 SRB screen; format: cell-based, human; conditions: HL-60 (TB); single dose 10^−5 M

O=C1Cc2c(sc3c(F)cccc23)C(c2ccccc2[N+](=O)[O-])N1 (stereo not shown) [Compound 3c]
Growth inhibition (%) [1]: 7.78% | Growth inhibition (%) [2]: 5.53% | Growth inhibition (%) [3]: 20.70% | Growth inhibition (%) [4]: 7.00% | Growth inhibition (%) [5]: 12.83% | Growth inhibition (%) [6]: 8.52% | Growth inhibition (%) [7]: 0.60% | Growth inhibition (%) [8]: 14.88% | Growth inhibition (%) [9]: −15.47% | Growth inhibition (%) [10]: −1.98% | Growth inhibition (%) [11]: −0.49% | Growth inhibition (%) [12]: 23.13% | Growth inhibition (%) [13]: −7.33% | Growth inhibition (%) [14]: 6.94% | Growth inhibition (%) [15]: 1.41% | Growth inhibition (%) [16]: −10.00% | Growth inhibition (%) [17]: −0.58% | Growth inhibition (%) [18]: −5.76% | Growth inhibition (%) [19]: 10.03% | Growth inhibition (%) [20]: 6.16% | Growth inhibition (%) [21]: −20.20% | Growth inhibition (%) [22]: −12.09% | Growth inhibition (%) [23]: 20.72% | Growth inhibition (%) [24]: −24.83% | Growth inhibition (%) [25]: −25.53% | Growth inhibition (%) [26]: −7.97% | Growth inhibition (%) [27]: −12.74% | Growth inhibition (%) [28]: −0.72% | Growth inhibition (%) [29]: −5.89% | Growth inhibition (%) [30]: −19.98% | Growth inhibition (%) [31]: −10.16% | Growth inhibition (%) [32]: 15.84% | Growth inhibition (%) [33]: 14.07% | Growth inhibition (%) [34]: −5.43% | Growth inhibition (%) [35]: 2.72% | Mean growth inhibition (%) [36]: 1.33% | Growth inhibition (%) [37]: −9.68% | Growth inhibition (%) [38]: 24.17% | Growth inhibition (%) [39]: 34.55% | Growth inhibition (%) [40]: −0.33% | Growth inhibition (%) [41]: 2.71% | Growth inhibition (%) [42]: −41.81% | Growth inhibition (%) [43]: 0.94% | Growth inhibition (%) [44]: −8.05% | Growth inhibition (%) [45]: 2.86% | Growth inhibition (%) [46]: 1.00% | Growth inhibition (%) [47]: 4.62% | Growth inhibition (%) [48]: −18.72% | Growth inhibition (%) [49]: 2.18% | Growth inhibition (%) [50]: 30.62% | Growth inhibition (%) [51]: 10.42% | Growth inhibition (%) [52]: −0.56% | Growth inhibition (%) [53]: −15.87%

O=C1Cc2c(sc3c(F)cccc23)C(c2cccc([N+](=O)[O-])c2)N1 (stereo not shown) [Compound 3d]
Growth inhibition (%) [1]: 10.96% | Growth inhibition (%) [2]: −6.36% | Growth inhibition (%) [3]: 2.40% | Growth inhibition (%) [4]: −1.20% | Growth inhibition (%) [5]: 14.07% | Growth inhibition (%) [6]: 14.32% | Growth inhibition (%) [7]: 23.81% | Growth inhibition (%) [8]: 20.57% | Growth inhibition (%) [9]: 4.88% | Growth inhibition (%) [10]: 17.55% | Growth inhibition (%) [11]: 3.93% | Growth inhibition (%) [12]: 0.53% | Growth inhibition (%) [13]: 2.86% | Growth inhibition (%) [14]: −3.95% | Growth inhibition (%) [15]: 1.04% | Growth inhibition (%) [16]: 21.33% | Growth inhibition (%) [17]: 2.30% | Growth inhibition (%) [18]: 4.50% | Growth inhibition (%) [19]: 21.53% | Growth inhibition (%) [20]: 14.60% | Growth inhibition (%) [21]: −9.19% | Growth inhibition (%) [22]: 0.03% | Growth inhibition (%) [23]: 21.32% | Growth inhibition (%) [24]: −5.23% | Growth inhibition (%) [25]: −1.12% | Growth inhibition (%) [26]: −3.38% | Growth inhibition (%) [27]: −7.27% | Growth inhibition (%) [28]: 1.35% | Growth inhibition (%) [29]: 2.90% | Growth inhibition (%) [30]: −7.53% | Growth inhibition (%) [31]: 0.90% | Growth inhibition (%) [32]: 7.98% | Growth inhibition (%) [33]: 23.07% | Growth inhibition (%) [34]: −5.27% | Growth inhibition (%) [35]: 5.55% | Mean growth inhibition (%) [36]: 6.24% | Growth inhibition (%) [37]: −10.00% | Growth inhibition (%) [38]: 21.82% | Growth inhibition (%) [39]: 20.45% | Growth inhibition (%) [40]: 6.23% | Growth inhibition (%) [41]: 12.77% | Growth inhibition (%) [42]: −52.28% | Growth inhibition (%) [43]: 4.04% | Growth inhibition (%) [44]: −8.70% | Growth inhibition (%) [45]: 15.78% | Growth inhibition (%) [46]: 2.78% | Growth inhibition (%) [47]: 29.04% | Growth inhibition (%) [48]: −6.11% | Growth inhibition (%) [49]: 0.09% | Growth inhibition (%) [50]: 34.84% | Growth inhibition (%) [51]: 6.60% | Growth inhibition (%) [52]: 6.70% | Growth inhibition (%) [53]: 12.00%
